Target: Serum paraoxonase/arylesterase 1 (Homo sapiens, UniProt P27169)
Assay: Enzyme Activity Assay
Procedure: The enzyme assay was based on the estimation of p-nitrophenol at 412 nm. Paraoxonase activity was determined spectrophotometrically using the same procedure in our previous studies [Ekinci et al., Eur. J. Pharmacol., 617:84-89]. One enzyme unit was defined as the amount of enzyme that catalyzes the hydrolysis of 1 μmol of substrate at 25°C.

Sequence of Serum paraoxonase/arylesterase 1 (P27169 whole entry): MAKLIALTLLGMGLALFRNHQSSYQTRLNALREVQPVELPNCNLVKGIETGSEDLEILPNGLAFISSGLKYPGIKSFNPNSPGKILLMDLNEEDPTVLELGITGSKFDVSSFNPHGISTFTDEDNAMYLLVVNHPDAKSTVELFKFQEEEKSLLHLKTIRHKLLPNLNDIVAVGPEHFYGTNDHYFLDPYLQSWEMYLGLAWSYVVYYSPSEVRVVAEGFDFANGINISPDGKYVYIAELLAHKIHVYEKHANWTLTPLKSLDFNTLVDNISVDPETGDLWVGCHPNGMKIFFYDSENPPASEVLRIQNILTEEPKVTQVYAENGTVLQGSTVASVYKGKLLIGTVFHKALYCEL

Compound	IC50
O=C(c1ccc(O)c(O)c1)c1c(O)c(O)cc(Br)c1Br [(2,3-Dibromo-5,6-dihydroxyphenyl)(3,4-dihydroxyphenyl)methanone (10)]	832 µM
COc1ccc(C(=O)c2c(Br)c(Br)cc(OC)c2OC)cc1OC [(2,3-dibromo-5,6-dimethoxyphenyl)(3,4-dimethoxyphenyl)methanone (7)]	174 µM
COc1ccc(C(=O)c2cccc(OC)c2OC)cc1OC [(2,3-dimethoxyphenyl)(3,4-dimethoxyphenyl)methanone (6)]	1210 µM
O=C(c1cc(O)c(O)cc1Br)c1c(O)c(O)cc(Br)c1Br [(2-Bromo-4,5-dihydroxyphenyl)(2,3-dibromo-5,6-dihydroxyphenyl)methanone (11)]	1110 µM
COc1cc(Br)c(C(=O)c2c(Br)c(Br)cc(OC)c2OC)cc1OC [(2-Bromo-4,5-dimethoxyphenyl)(2,3-dibromo-5,6-dimethoxyphenyl)methanone (8)]	123 µM
O=C(c1cc(O)c(O)c(Br)c1)c1c(O)c(O)cc(Br)c1Br [(3-Bromo-4,5-dihydroxyphenyl)(2,3-dibromo-5,6-dihydroxyphenyl)methanone (12)]	701 µM
COc1cc(C(=O)c2c(Br)c(Br)cc(OC)c2OC)cc(Br)c1OC [(3-Bromo-4,5-dimethoxyphenyl)(2,3-dibromo-5,6-dimethoxyphenyl)methanone (9)]	125 µM

Reference: BindingDB's records for doi:10.3109/14756366.2012.715287 (Atatürk University, 2013)
